The test system of test [1] is liver fibrosis. Briefly: CCl4 mouse liver fibrosis model, liver Western blot. Type of test: in vivo, C57BL/6 mice. The conditions noted are these: CCl4 mice, 50 μM compound. On the procedure:
FIGS. 7A-7E include an image and graphs showing that compound 2.1 facilitates anti-fibrotic responses during the resolution of liver fibrosis. Mice were injected I.P. with the fibrosis-inducing agent CCl4 twice a week. After 28 days the mice were injected with vehicle (DMSO 0.4%), or 50 μM compound 2.1 ([…]). After 2 additional days, livers were collected and analyzed by western blot (7A) for their expression of collagen 1 and the M2 marker arginase 1, as well as β-actin (loading control). Alternatively, livers were analyzed for their mRNA expression of the IFN-responsive genes Ifitml (7B) and Ifitm3 (7C), or the anti-fibrotic protein Rgs2 (7D). Liver interstitial fluids were evaluated for the anti-fibrotic cytokine IL-10 (7E) levels. Results are representative from 4 (A) or mean±SEM of 8 mice (7B-7E). One-way ANOVA, and Tukey HSD test ** P≤0.01, **** P≤0.0001.
FIGS. 9A-9E include an image of Western blot analysis and vertical bar graphs showing that compound 2.1 reduces production of fibrosis-related factors. (9A) Western blot analysis showing that treatment with compound 2.1 (c2.1) in a liver fibrosis model results in: reduced production of Collagen 1 (Col-1), and of Arginase 1, and increased production of IFN-β. (9B-9E) Vertical bar graphs showing densitometric analysis of (9A) for Col-1 (9B), Arginase-1 (9C), IFN-β (9D), and alpha smooth muscle actin (αSMA; 9E). (9B-9E) results are mean±SEM. One-way ANOVA, and Tukey HSD test * P≤0.05, ** P≤0.01.
Male C57BL/6 mice were randomly assigned to experimental groups at approximately eight weeks old. Mice were injected I.P. with CCl4 (1 ml/kg) three times a week for six weeks with 0.2 ml of a 10 percent CCl4 in corn oil. Forty-eight hours before sacrifice, the vehicle group was injected I.P. with CCL4, while the treatment group was injected with CCl4 and 50 μM of compound 2.1. Then the liver was collected in a RIPA buffer for Western blot analysis.
Protein extracts of liver tissue were separated by sodium dodecyl sulfate polyacrylamide gel electrophoresis (SDS-PAGE), transferred to PVDF membranes (Bio-Rad Laboratories, Inc.), blocked with 5% skimmed milk powder, and immunoblotted with antibodies targeting: IFN-β, arginase 1, collagen 1, or β-actin. Then, the membranes were washed, incubated with the appropriate horseradish peroxidase (HRP)-conjugated secondary antibody, and developed using WesternBright™ ECL (Advansta Inc). Band density was quantified with FIJI ImageJ software.
(In general: A western blot detects proteins with antibodies after separation by electrophoresis.)

Test [2] has as its target T1, STING (Homo sapiens, UniProt Q86WV6).
T1 construct: endogenous in cells; host or cells: U937 cells differentiated with PMA
Briefly: Cytokine expression and STING signaling in PMA-differentiated U937 macrophages. In kind it is cell-based. The conditions noted are these: 50 nM, compared with c-GAMP 1 μg/ml. On the procedure: FIGS. 8A-8G include graphs and an image showing that compound 2.1 activates cytokine expression and STING signaling in human macrophages in a similar fashion to cGAMP. Human monocytes of the U937 cell line were treated with phorbol 12-myristate 13-acetate (PMA; 50 ng/ml) for 48 hours. Then, differentiated macrophages (4×10^6 cells) were treated with c-di-GMP (10 μg/ml), c-GAMP (1 μg/ml), compound 2.1 (50 nM) or vehicle for 8 (8A-8F) or 2 (8G) hours. Cells (8A-8D, and 8G) or culture supernatants (8E-8F), were collected and analyzed by RT-PCR, ELISA, and immunoblotting for: TNFα (8A), IL-6 (8B), IL-10 (8C), IFN-β (8D), IL-10 (8E), and TNFα (8F), or STING-IFN-β-RGS2 pathway proteins and actin as a loading control (8G). Results are representative mean±SEM from 3 experiments. One-way ANOVA, and Tukey HSD test ** P≤0.01, P<0.001, **** P≤0.0001.

Each structure is given as a SMILES string. “Also recorded” adds a separate entry of the source.

T1 sequence (Q86WV6 whole entry H232R): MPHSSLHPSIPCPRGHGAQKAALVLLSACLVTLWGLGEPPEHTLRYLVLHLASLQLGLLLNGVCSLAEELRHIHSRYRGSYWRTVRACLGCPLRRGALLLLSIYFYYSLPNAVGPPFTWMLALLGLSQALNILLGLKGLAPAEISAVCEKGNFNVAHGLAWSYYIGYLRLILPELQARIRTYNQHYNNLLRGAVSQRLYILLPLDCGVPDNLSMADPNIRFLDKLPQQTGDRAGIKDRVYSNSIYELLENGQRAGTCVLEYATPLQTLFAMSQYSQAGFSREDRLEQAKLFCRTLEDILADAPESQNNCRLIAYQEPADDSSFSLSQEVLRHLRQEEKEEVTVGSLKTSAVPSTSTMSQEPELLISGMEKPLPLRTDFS

For the molecule `c1ccc(CSc2nnc(CCCCCCCCc3nnc(SCc4ccccc4)o3)o2)cc1` [Compound 2.1, 2-(benzylsulfanyl)-5-{8-[5-(benzylsulfanyl)-1,3,4-oxadiazol-2-yl]octyl}-1,3,4-oxadiazole], in test [1], the “Production of fibrosis-related factors” value is recorded as “reduces”. Also, in test [1] (Western blot), the “Production of Arginase 1 in liver” value was “reduction; also recorded: reduced”, the “Production of Collagen 1 in liver” value was “reduction; also recorded: reduced” and the “Production of IFN-β in liver” value is “elevated production; also recorded: increased”. In addition, the “Anti-fibrotic responses during the resolution of liver fibrosis” value in test [1] (livers after 2 days) is given as “facilitates”. The “STING signaling (STING-IFN-β-RGS2 pathway proteins)” value in test [2] (2 hours) was “activates”. Also, the “Cytokine expression (TNFα, IL-6, IL-10, IFN-β)” value in test [2] (8 hours) was “activates”.

These data come from patent publication US20250302798A1, “STING INHIBITORS AND USE THEREOF” (CARMEL HAIFA UNIVERSITY ECONOMIC CORPORATION LTD., priority 2022, published 2025).
